Assay results from patent US5759836A, “Osteoarthritis-associated inducable isoform of nitric oxide synthetase” (priority 1995, dated 1998).
Entries after “also recorded” stand apart in the source; their conditions may differ.

Legend:
[1] = tested on: human chondrocyte NOS; conditions: cited from earlier work
[2] = tested on: human iNOS; conditions: crude lysates; cited from earlier work
[3] = tested on: human iNOS; experiment: Sensitivity of human iNOS to PDTC
[4] = tested on: OA-NOS; experiment: Sensitivity of OA-NOS to agents (Table 3 comparison)
[5] = tested on: NF-κB; conditions: 30 μM; cited from earlier work
[6] = tested on: iNOS; experiment: Nitrite accumulation in LPS-stimulated RAW 264.7 murine macrophages (Griess method); assay type: cell-based; conditions: Mus musculus, RAW264.7; 30 μM; read-out: block of nitrite accumulation
Procedure: Effects of NSAIDs on Nitrite Accumulation. […] The expression and activity of iNOS were monitored by estimation of the stable end-product: nitrites.
concentrations of NSAIDs for 2 h followed by addition of 100 ng/ml of LPS
After 16-18 h of incubation, the medium was used to estimate the
accumulation of nitrite by the Greiss method (Green et al., Anal Biochem.
The specific activity of iNOS was determined in cellfre
extracts at a given time period as described. The nitrite and specific
activity data are representative of mean ± SD value, as determined by
student t test, for 10 and 4 independent experiments, respectively. The p
values described are compared with LPSstimulated cells. […]

[7] = tested on: murine iNOS; experiment: Sensitivity of murine iNOS to PDTC
[8] = tested on: OA-NOS; experiment: Nitrite release by OA-affected articular cartilage, ex vivo organ culture; assay type: cell-based, human; conditions: Homo sapiens; cycloheximide 35 μM or PDTC 30 μM, 24 h; cytokine/endotoxin-induced and control cartilage; read-out: block of nitrite accumulation
[9] = tested on: calmodulin; experiment: Calmodulin binding of NOS isoforms
Procedure: Extraction of Human Chondrocyte NOS and Western Blotting. Slices from articular cartilage affected by OA were frozen at -70° C., milled to fine particulate in liquid nitrogen, and sequentially extracted (10 ml/gram wet weight tissue) with neutral salt buffer (Tris HCl:saline) containing protease inhibitors (1 mM PMSF, 2 mM N-ethylmaleimide, and 0.025 mg/ml leupeptin), followed with the same buffer containing 10 mM EDTA, with 4 M guanidine-HCl, and then with a detergent buffer containing 10% SDS with protease inhibitors. Samples were run on 9% or 4-15% gradient SDS-PAGE gels under non-reducing conditions, transferred to nitrocellulose, and Western blotted with α-iNOS/α-ncNOS or α-calmodulin mAb (Cho et al., J. Exp. Med. 176:599-604, 1992). Bound antibody was detected by a secondary antibody conjugated with horseradish peroxidase, and developed using the ECL Western blotting system (Amersham, Arlington Heights, Ill.) on Kodak Xomatic X-ray film.

O=C(O)CN(CCOCCOCCN(CC(=O)O)CC(=O)O)CC(=O)O [EGTA]
enzyme activity in cell-free extracts [1]: no effect on enzyme activity
human iNOS activity [2]: markedly reduces

S=C(S)N1CCCC1 [PDTC, pyrrolidine dithiocarbamate]
effect on human iNOS [3]: not human iNOS
sensitivity of OA-NOS [4]: blocked; also recorded: shows sensitivity
inhibition of NF-κB as component of iNOS transcription/expression [5]: inhibited
inhibition at 30 µM [6]: > 90%
effect on murine iNOS [7]: blocks murine iNOS
inhibition at 30 µM [8]: > 90%

human hepatocyte iNOS: obtained from NIH 3T3 fibroblasts transduced with a retrovirus carrying the human hepatocyte iNOS cDNA
Calmodulin binding [9]: complexed with calmodulin
